Structures can show the parent of a compound that is named as a salt.
Legend:
[1] = molecular target: T1, CDK9 (Homo sapiens, UniProt P50750); assay: Lance Ultra KinaSelect Assay, CDK9; assay type: biochemical; details: read-out: Inhibition (IC50) CDK9
T1 construct: purchased Invitrogen
Method: (§1) This protocol describes how the Lance Ultra KinaSelect Assay was performed to determine half maximal inhibitory concentration (IC50) of compounds of general formula (I) and CDK/Cyclin complexes. The principle behind this enzymatic assay is based upon the phosphorylation of the ULight-Peptide Substrat. It is detected by using a specific EU-labeled anti-phospho peptide antibody. The binding of the Eu-labeled anti-phospho peptide antibody to the phosphorylated U Light labeled peptide gives rise to a FRET-signal. Binding of an inhibitor to the kinase prevents phosphorylation of the ULight-MBP Substrat, resulting in a loss of FRET.
(§2) The compounds of general formula (I) summarized in Table 5 were diluted from a 10 mM DMSO stock solution 1:10 in a total volume of 15 μL DMSO. This compound predilution was then serial diluted 1:3 over 8 steps in DMSO and briefly spun down. Each compound solution was now diluted 1:20 in Enzymatic Buffer (HEPES: 50 mM, pH: 7.5; MgCl2: 10 mM; EGTA: 1 mM; DTT: 2 mM; Tween-20: 0.01%), mixed thoroughly and spun down. For every sample, 2 μL of the diluted compound were mixed with 6 μL CDK/Cyclin/Substrat solution and […] in a well of a small volume 384 well plate (Corning Incorporated, Corning, N.Y., USA; order no. 3673). […] For positive controls, in each well 2 μL of DMSO solution (1% final DMSO assay concentration) was mixed with 6 μL CDK/Cyclin/Substrat (appropriate final concentration see Table 3) and 2 μL Tracer ATP solution (appropriate final concentration see Table 3). Positive and negative controls were calculated from at least 8 different sample wells. The 384 well plates were mixed in a Teleshaker plate mixer (Beckman Coulter, Brea, Calif., USA) at 2000 rpm for 40 sec, and incubated for 1 h at room temperature. Before reading, 10 μL detection buffer (Lance Detection Buffer 1×; EDTA: […]; Eu-Anti-P-MBP: see Table 3) was added. The FRET signal was measured at 340 nm excitation, 665 nm and 615 nm emission (for the kinase tracer and LanthaScreen Eu-AB, respectively) with an Envision spectrophotometer (Perkin Elmer, Waltham, Mass., USA) with 50 μs delay and 300 μs integration time. IC50 values were determined from the sigmoidal dose response curves with the software Quattro Workflow (Quattro GmbH, Munich, Germany).

[2] = molecular target: T2, CDK2/CyclinA (Homo sapiens, UniProt P24941); assay: Lance Ultra KinaSelect Assay, CDK2; assay type: biochemical; details: ATP 3 μM, read-out: Inhibition (IC50) CDK2
T2 construct: purchased Proqinase
Method: as §1, §2

[3] = test system: RNA Polymerase II Ser2 phosphorylation (cellular CDK9 activity) in HCT-116 cells; assay: RNA-Polymerase II Ser2 cellular phosphorylation assay; assay type: cell-based; details: Homo sapiens, normalized with tubulin
Method: HCT-116 cells (DSMZ, Braunschweig, Germany) were maintained in Mc Coy's cell culture medium+glutamine (PAN Biotech GmbH, Aidenbach, Germany) supplemented with 10% fetal calf serum (PAA Laboratories GmbH, Pasching, Austria) and grown at 37° C., 5% CO2. For the cellular phosphorylation assay, cells were seeded with 2×10^5 cells/well/1 ml in 24-well plates (Greiner Bio—One, Frickenhausen, Germany; catalog #662160). The compounds of general formula (I) summarized in Table 6 were diluted from a 10 mM DMSO stock solution 1:10 in a total volume of 15 μL DMSO. After overnight incubation at 37° C./5% CO2, 1.5 μL of a compound diluted in DMSO was added to each sample well. Wells with cells and 0.15% DMSO in culture medium were used as positive controls, wells without cells and 0.15% DMSO in culture medium were used as negative controls. The cells were incubated with the compounds for 72 h at 37° C./5% CO2. Before lysis, cells were washed with phosphate buffered saline. Phosphorylation of RNA Polymerase II Ser2 and tubulin levels for normalization were analyzed afterwards with the Multi-Array technology (Meso Scale Discovery, Gaithersburg, Md., USA), a combination of antibody coupled electrochemiluminescence detection and patterned arrays. Manufacturer's instructions were followed and all solutions were purchased from Meso Scale Discovery. In brief, cells were lysed by 30 min incubation in CLB1 lysis buffer (Zeptosens, Witterswil, Switzerland; 60 μL per well), and supernatants were cleared by centrifugation. For analysis of RNA Polymerase II Ser2-phosphorylation, lysates were diluted 1:50 with Meso Scale Lysis Buffer supplemented with phosphatase- and protease-inhibitors, and 25 µL of each sample was pipetted in a well of a MSD Multi-Array 96-Well Plate Sector® Imager High Bind Plate (Meso Scale Discovery; catalog #L15XB-3/L11XB-3), and incubated for 2 h at room temperature. […] Meso Scale Tris Wash Buffer supplemented with 3% w/v Meso Scale Blocker A were added per well, then plates were sealed and incubated 1 h with vigorous shaking. Plates were washed with 1× Tris Wash Buffer (10× Meso Scale Wash Buffer diluted 1:10 in destilled water), 25 μL of antibody solution was added (CTD7 3E10 antibody from Helmholtz Zentrum Munich, Germany, diluted 1:100 in Meso Scale Tris Wash Buffer supplemented with 1% w/v Meso Scale Blocker A), and plates were washed three times in 1× Tris Wash Buffer. 25 μL of MSD® SULFO-TAG™ Goat-Anti-Rat-Antibody (Meso Scale Discovery, catalog #R^32AH-1, diluted 1:125 in Tris Wash Buffer with 1% (w/v) blocker A) were added per well, plates were sealed and incubated with vigorous shaking for 1 h at room temperature. Finally, plates were washed three times with Tris Wash Buffer, 150 μl 2× Read Buffer (Meso Scale Discovery) were added per well and plates were analyzed immediately in a Sector Imager from Meso Scale Discovery. For determination of tubulin protein levels, samples were analyzed with the protocol for RNA Polymerase II Ser2-phosphorylation, with an anti-tubulin antibody (rabbit; BIODESIGN International, catalog #T59840R, diluted 1:100) and a MSD® SULFO-TAG™ […] (Meso Scale Discovery, catalog #R^32AH-1, diluted 1:125). RNA Polymerase II Ser2 phosphorylation was normalized with tubulin protein levels, and EC50 values were calculated with the software XLFit (IDBS, Guildford, UK) from 2-fold dilution series comprising 6 concentrations in duplicates.

T1 sequence (P50750 whole entry): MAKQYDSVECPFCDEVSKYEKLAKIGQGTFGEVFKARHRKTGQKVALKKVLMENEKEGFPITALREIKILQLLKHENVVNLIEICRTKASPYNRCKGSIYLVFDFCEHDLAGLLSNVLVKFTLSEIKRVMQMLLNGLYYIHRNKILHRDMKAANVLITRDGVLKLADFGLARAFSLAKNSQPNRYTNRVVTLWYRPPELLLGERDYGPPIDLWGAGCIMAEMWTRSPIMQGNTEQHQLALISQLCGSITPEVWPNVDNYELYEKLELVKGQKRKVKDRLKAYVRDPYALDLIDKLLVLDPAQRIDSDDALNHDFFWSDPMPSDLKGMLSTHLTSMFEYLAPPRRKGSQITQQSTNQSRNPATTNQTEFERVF

Row | Compound | IC50 [1] [nM] | IC50 [2] [nM] | IC50 [3] [nM]
1 | COc1ccccc1-c1ncnc(Nc2cccc(CS(N)(=O)=O)c2)n1 [B1′, 3-[(4-(2-Methoxyphenyl)-1,3,5-triazin-2-yl)amino]benzenemethanesulfonamide trifluoroacetic acid salt] | 96.5 | 3080 | 10900
2 | COc1cc(F)ccc1-c1ncnc(Nc2cccc(CS(N)(=O)=O)c2)n1 [B2′, 1-(3-{[4-(4-fluoro-2-methoxyphenyl)-1,3,5-triazin-2-yl]amino}phenyl)methanesulfonamide hydrochloride] | 10.4 |  | 
3 | COc1cc(F)ccc1-c1ncnc(Nc2cccc(CS(N)(=O)=O)c2)n1 [B2″, 1-(3-{[4-(4-fluoro-2-methoxyphenyl)-1,3,5-triazin-2-yl]amino}phenyl)methanesulfonamide trifluoroacetic acid salt] | 11.6 | 568 | 3640
4 | NS(=O)(=O)Cc1cccc(Nc2ncnc(-c3ccccc3OCc3ccccc3)n2)c1 [B13′, 3-[(4-(2-Benzyloxyphenyl)-1,3,5-triazin-2-yl)amino]benzenemethanesulfonamide trifluoroacetic acid salt] | 5.7 | 1770 | 
5 | COc1ccccc1-c1ncnc(Nc2cccc(S(N)(=O)=O)c2)n1 [C1′, 3-[(4-(2-Methoxyphenyl)-1,3,5-triazin-2-yl)amino]benzenesulfonamide trifluoroacetic acid salt] | 20.7 | 781 | 2870
6 | COc1cc(F)ccc1-c1ncnc(Nc2cccc(CS(N)(=O)=O)c2)n1 [Compound B2, 3-[(4-(4-Fluoro-2-methoxyphenyl)-1,3,5-triazin-2-yl)amino]benzenemethanesulfonamide] | 10.6 |  | 
7 | COc1ccc(F)cc1-c1ncnc(Nc2cccc(CS(N)(=O)=O)c2)n1 [Compound B3, 3-[(4-(5-Fluoro-2-methoxyphenyl)-1,3,5-triazin-2-yl)amino]benzenemethanesulfonamide] |  |  | 9620
8 | COc1cccc(F)c1-c1ncnc(Nc2cccc(CS(N)(=O)=O)c2)n1 [Compound B4, 3-[(4-(6-Fluoro-2-methoxyphenyl)-1,3,5-triazin-2-yl)amino]benzenemethanesulfonamide] | 201 | 1440 | 49800
9 | COc1cc(Cl)ccc1-c1ncnc(Nc2cccc(CS(N)(=O)=O)c2)n1 [Compound B6, 3-[(4-(4-Chloro-2-methoxyphenyl)-1,3,5-triazin-2-yl)amino]benzenemethanesulfonamide] | 16.2 | > 10000 | 15300
10 | CCOc1ccccc1-c1ncnc(Nc2cccc(CS(N)(=O)=O)c2)n1 [Compound B12, 3-[(4-(2-Ethoxyphenyl)-1,3,5-triazin-2-yl)amino]benzenemethanesulfonamide] | 102 | 2930 | 17500
11 | NS(=O)(=O)Cc1cccc(Nc2ncnc(-c3ccccc3Oc3ccccc3)n2)c1 [Compound B14, 1-(3-{[4-(2-phenoxyphenyl)-1,3,5-triazin-2-yl]amino}phenyl)methanesulfonamide] | 9 |  | 14500
12 | NS(=O)(=O)Cc1cccc(Nc2ncnc(-c3ccccc3OCc3ccncc3)n2)c1 [Compound B16, 3-[(4-(2-((4-Pyridinyl)methoxy)phenyl)-1,3,5-triazin-2-yl)amino]benzenemethanesulfonamide] | 9 | 1070 | 11900
13 | COc1cnccc1-c1ncnc(Nc2cccc(CS(N)(=O)=O)c2)n1 [Compound B19, 3-[(4-(3-Methoxypyridin-4-yl)-1,3,5-triazin-2-yl)amino]benzenemethanesulfonamide] |  |  | 15500
14 | COc1ccccc1-c1ncnc(Nc2cccc(CCS(N)(=O)=O)c2)n1 [Compound D1, 2-[3-((4-(2-Methoxyphenyl)-1,3,5-triazin-2-yl)amino)phenyl]ethanesulfonamide] | 139 | 515 | 
15 | COc1cc(F)ccc1-c1ncnc(Nc2cccc(CCS(N)(=O)=O)c2)n1 [Compound D2, 2-[3-((4-(4-Fluoro-2-methoxyphenyl)-1,3,5-triazin-2-yl)amino)phenyl]ethanesulfonamide] | 12.8 | 423 | 10800
16 | COc1ccccc1-c1ncnc(Nc2cccc([N+](=O)[O-])c2)n1 [Compound H1, 4-(2-Methoxyphenyl)-N-(3-nitrophenyl)-1,3,5-triazine-2-amine] | 194 |  | 
17 | COc1ccccc1-c1ncnc(Nc2cccc(NS(C)(=O)=O)c2)n1 [Compound K1, N-[3-((4-(2-Methoxyphenyl)-1,3,5-triazin-2-yl)amino)phenyl]-methanesulfonamide] | 72 | 826 | 
18 | CCCS(=O)(=O)Nc1cccc(Nc2ncnc(-c3ccccc3OC)n2)c1 [Compound L1, N-[3-((4-(2-Methoxyphenyl)-1,3,5-triazin-2-yl)amino)phenyl]-propanesulfonamide] | 111 | > 10000 | > 30000
19 | COc1ccccc1-c1ncnc(Nc2ccccc2)n1 [Compound P1, 4-(2-Methoxyphenyl)-N-phenyl-1,3,5-triazine-2-amine] | 937 |  | 

Source: patent publication US20130079345A1, “[…] ACTIVE DISUBSTITUTED TRIAZINE DERIVATIVES” (BAYER INTELLECTUAL PROPERTY GMBH, priority 2010, published 2013)
